Molecules are shown by their SMILES.

In the experiment the target is T1, human adenosine-A3 receptor (Homo sapiens, UniProt P0DMS8).
T1 construct: expressed in transfected cells; membrane preparations
T1 sequence (P0DMS8 1-318): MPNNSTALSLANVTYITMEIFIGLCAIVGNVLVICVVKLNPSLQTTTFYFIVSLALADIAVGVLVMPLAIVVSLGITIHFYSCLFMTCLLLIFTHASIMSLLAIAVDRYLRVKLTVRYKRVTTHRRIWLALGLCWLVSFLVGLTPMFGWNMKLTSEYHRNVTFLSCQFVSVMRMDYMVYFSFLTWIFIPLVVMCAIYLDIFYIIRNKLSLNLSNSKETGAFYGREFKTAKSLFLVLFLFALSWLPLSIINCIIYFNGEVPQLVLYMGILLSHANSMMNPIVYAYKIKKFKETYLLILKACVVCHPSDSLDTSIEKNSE
Put plainly: Receptor binding to human adenosine-A3 receptors ([125I]-AB-MECA displacement, HEK 293 membranes). The protocol: Receptor Binding to Human Adenosine-A3 Receptors
Affinity of the compounds for human adenosine-A3 receptors was determined using the receptor binding assay described by C. A. Salvatore et al.: Molecular cloning and characterization of the human A3 adenosine receptor, Proc. Natl. Acad. Sci. USA, 90, 10365-10369, 1993. Briefly, membrane preparations were obtained from human recombinant (HEK 293) cells in which the human adenosine-A3 receptor was stably expressed. Membranes were incubated at 22° C. for 90 minutes with [^125l]-AB-MECA in the absence or presence of testcompounds in a concentration range from 10 μM down to 0.1 nM, diluted in a suitable buffer. Separation of bound radioactivity from free was done by filtration through Packard GF/B glass fiber filters with several washings with ice-cold buffer using a Packard cell harvester. Bound radioactivity was measured with a scintillation counter (Topcount, Packard) using a liquid scintillation cocktail (Microscint 0, Packard). Measured radioactivity was plotted against the concentration of the displacing test compound and displacement curves were calculated by four-parameter logistic regression, resulting in IC50 values, i.e. that concentration of displacing compound by which 50% of the radioligand is displaced. […]

On to `C[C@@H](Nc1nc(Cl)nc(Nc2ccc3c(c2)OCO3)n1)[C@@H](O)c1ccccc1` [formula (9), (1S,2R)-2-{[4-chloro-6-(3,4-methylenedioxy-phenylamino)-[1,3,5]triazin-2-yl]-amino}-1-phenyl-propan-1-ol], for which the Ki ([125I]-AB-MECA, membranes of HEK 293 cells expressing human A3, 22° C., 90 minutes, read-out: affinity for human adenosine-A3 receptors pKi (converted)) was 1 nM. The “affinity for human adenosine-A3 receptors (in words)” value (binding assay, result stated in words) was “highly active”.

Source of the values: patent publication US7307079B2, “1,3,5-Triazine derivatives as ligands for human adenosine-A3 receptors” (Solvay Pharmaceuticals, B.V., priority 2002, dated 2007).
